In US20250340590A1, “PEPTIDE HAVING ANTI-INFLAMMATORY ACTIVITY AND USE THEREOF” (CAREGEN CO., LTD., priority 2021, published 2025):

Tests used:
TNFα [1] = test: TNFα secretion by ELISA in LPS-induced mouse splenocytes; assay type: cell-based; settings: LPS 2 μg/mL, peptide at 5 μM and 50 μM, 24 hours
Description: Inflammation was induced in mouse splenocytes, and the secretion amounts of inflammatory cytokines TNFα, IL-1β, and IFNγ were confirmed. In order to induce inflammation, the cells were treated with an inflammation-inducing antigen, LPS, and since TNFα corresponds to a signaling protein associated with inflammation, IL-1β corresponds to a cytokine that promotes inflammation, and IFNγ also corresponds to a cytokine that promotes inflammation, the degree of inflammation can be confirmed by measuring the secretion amounts of TNFα, IL-1B, and IFNγ.
Mouse splenocytes were dispensed into a 24-well plate at a concentration of 1×10^7 cells/well and cultured until the next day. The medium was replaced with serum-free medium, and after 4 hours, the cells were treated with LPS and the peptide of the present invention and then cultured again for another 24 hours. In order to induce inflammation, the cells were treated with LPS at 2 μg/mL, and the peptide at 5 μM and 50 μM, respectively. […]

iNos = iNos protein level by Western blot in HaCaT cells induced with LPS, TGFβ and IL-23; assay type: cell-based, human; settings: IL-23 and LPS, peptide at 5 μM and 50 μM, 24 hours, compared to group not treated with the peptide
Description: In order to further confirm the anti-inflammatory effect of the peptide treatment of the present invention in addition to the results of Experimental Example 1, HaCaT cells were treated with Th17 (type 17), which is an inflammation-inducing substance, and the expression levels of inflammation-inducing markers iNos and Cox2 were confirmed. As the inflammation-inducing substances, the cells were treated with LPS, TGFβ, and IL-23, and since iNos is an enzyme involved in the production of nitric oxide (NO), which is an inflammation-related protein induced by LPS, etc., it is possible to confirm whether inflammation is inhibited by measuring the expression levels of iNos and Cox2.
HaCaT cells were dispensed into a 24-well plate at a concentration of 3× 10^5 cells/well and cultured until the next day. The medium was replaced with serum-free medium, and after 4 hours, the cells were treated with TGFβ, IL-23, and LPS, which are Th17 type inflammation-inducing cytokines, and then with the peptide of the present invention and cultured again for another 24 hours. […] In order to perform Western blotting, the amounts of iNos and Cox2 proteins were measured using an anti-iNos antibody and an anti-Cox2 antibody (Cell Signaling Technology, USA). […]

TNFα [2] = test: TNFα mRNA level by RT-PCR in LPS-induced mouse splenocytes; assay type: cell-based; settings: LPS 2 μg/mL, peptide at 5 μM and 50 μM, 24 hours, compared to group not treated with the peptide
Description: Inflammation was induced in mouse splenocytes, and the expression levels of TNFα, and IL-6 genes, which is the inflammatory cytokines were confirmed. In order to induce inflammation, the cells were treated with LPS, an inflammation-inducing antigen, and since TNFα corresponds to a signaling protein associated with inflammation, and IL-6 corresponds to a cytokine that promotes inflammation, the degree of inflammation can be confirmed by measuring the expression levels of TNFα and IL-6 genes.
Mouse splenocytes were dispensed into a 24-well plate at a concentration of 1×10^7 cells/well and cultured until the next day. The medium was replaced with serum-free medium, and after 3 hours, the cells were treated with LPS and the peptide of the present invention and then cultured again for another 24 hours. In order to induce inflammation, the cells were treated with LPS at 2 μg/mL, and the peptide at […] and 50 μM, respectively. […] After quantifying the amount of isolated RNA, cDNA was synthesized using a cDNA synthesis kit (Intron, Korea), PCR was performed using a PCR premix (Intron, Korea) and primers for TNFα, and IL-6. […]

TWNS [peptide of the present invention]
decreased: secretion amount of TNFα (TNFα [1]) | expression level of iNos protein (iNos) | mRNA expression level of TNFα (TNFα [2])
